Results on two molecules are retold here after patent publication US7842683B2, “Neurotherapeutic compositions and method” (Revaax Pharmaceuticals, LLC, priority 1999, dated 2010).

Like-named read-outs stand apart in the source and are kept apart here.

One series concerns rats. Briefly: Morris water maze, cue navigation. Format: in vivo, rat. The protocol: (§1) On the day following the last day (Day 4) of spatial navigation, animals were tested for cue navigation. In these tests, the platform was raised above water level. One hr before testing animals were treated with Mox or saline vehicle. The same animals that were treated with Mox during spatial navigation were treated with Mox for cue navigation. Animals were run through a series of two minute trials with 45 min between trials. At each trial, the platform was moved to a different quadrant. The cue navigation study was identical to the spatial navigation except the platform was visible and the testing was done over five consecutive trials done on a single day. Animals were scored for latency to find the platform, percent time spent in each quadrant, path distance and swim speed for all testing periods
as §1, with “CLAV” for “Mox”, “animals” for “animals that were”, “min” for “minute”

For series [1] the following is noted: in vivo, cited from earlier work.
The subject of series [2] is male hamsters. Briefly: Novelty test, stress-induced release of cortisol. Format: in vivo. To be noted: 10 μg/kg IP. The protocol:
The simple procedure of placing an adult male hamster into a novel environment for 5 min causes a significant, predictable increase in blood levels of cortisol (Weinberg and Wong 1986). This novelty test was used to assess the effects of CLAV on stress-induced release of cortisol. Two groups of male hamsters were treated IP with either CLAV (10 μg/kg, n=6), or saline vehicle (n=4). A third group (n=4) received no treatment or isolation stress and served as a control for basal levels of cortisol. Sixty min after treatment animals were taken from their home cage and placed into a novel cage for 5 min. Afterwards animals were sacrificed by decapitation and trunk blood collected for radioimmunoassay of cortisol. All animals were tested under reverse light:dark conditions four hrs into the dark cycle. Data were compared with a one-way ANOVA followed by Fisher PLSD post hoc tests.

Another series has as its system golden hamsters. Briefly: Seed finding model of anxiety. The class given is in vivo, Syrian golden hamsters (Mesocricetus auratus). From the text: Clavulanic acid (CLAV) is structurally similar to the beta-lactam antibiotics. A most robust and simple bioassay for screening beta-lactams for CNS activity is the golden hamster seed finding model of anxiety. Briefly, hamsters are deprived of food overnight. The following day they are exposed to the additional stress of being taken from their home cage and placed in a novel environment for a few minutes. This manipulation stimulates the release of the stress hormone cortisol (FIG. 37). During their absence from the home cage, sunflower seeds are hidden under the bedding in one of the corners. When returned to the home cage, hamsters routinely scramble along the walls for 1-2 min before settling down, locating and eating the seeds. However, animals treated with the benzodiazepine anxiolytic chlordiazepoxide find seeds in less than 10 sec.
Male, Syrian golden hamsters (Mesocricetus auratus) (120-130 g) obtained from Harlan Sprague-Dawley Laboratories (Indianapolis, Ind.) were housed individually in Plexiglas cages (24 cm×24 cm×20 cm), maintained on a reverse light:dark cycle (14L:10D; lights on at 19:00 hr) and provided food and water ad libitum. A range of concentrations of CLAV (saline vehicle, 0.1, 1.0, 10, 100 1,000 ng/kg) were tested in six groups of hamsters (4-8/group)(FIG. 25). All tests were conducted during the dark phase of the circadian cycle under dim red illumination. Prior to testing all animals were fasted for 20-24 hrs. Ninety min after intraperitoneal (IP) injection of drug, animals were taken from their home cage and placed into a holding cage for 2 min. During their absence, six sunflower seeds were buried under the bedding in one corner of their home cage. Animals were placed back into their home cage randomly facing any one of the empty corners and timed for their latency to find the seeds in a five min observation period. Latency times were analyzed with a one-way ANOVA followed by Scheffe's post hoc tests. Assumption of equal variances was tested (Hartley's F-max=2.1 p>0.05)
It was hypothesized that CLAV functioned as an anxiolytic in the seed finding assay by blocking NAALADase activity in the brain. If this notion were true then it would be predicted that drugs known to block NAALADase should also enhance seed finding. To this end, animals were treated with N-acetyl-beta-aspartyl-glutamic acid (beta-NAAG), a competitive inhibitor of NAALADase (Serval et al., 1992) and tested in the seed finding model of anxiety. The study was similar to that outlined in Section I with one notable exception. […] Beta-NAAG (FW 304) was given in a dose of 3 ng in a volume of 1 μl saline ICV. The average adult hamster brain weights ca. 1.2 g of which 22% is extracellular fluid. The estimated beta-NAAG concentration was 11 ng/ml or 36 nM.
Two groups of six animals each were fasted overnight as previously described and tested the following day. One group was treated with beta-NAAG and the other saline vehicle and one hr later timed for latency to find the hidden sunflower seeds. A Student t-test for unpaired data was used for statistical comparisons.

Series [3] is described as follows: Estimated fluid and brain concentrations after dosing hamsters. Format: in vivo, hamster. The protocol:
The adult male hamsters used in these studies weighed around 125 g. […] CLAV has a volume of distribution approximating the extracellular fluid volume. The extracellular water content of lean body mass is approximately 22%.
To this end, animals were treated with N-acetyl-beta-aspartyl-glutamic acid (beta-NAAG), a competitive inhibitor of NAALADase (Serval et al., 1992) and tested in the seed finding model of anxiety. The study was similar to that outlined in Section I with one notable exception. […] Beta-NAAG (FW 304) was given in a dose of 3 ng in a volume of 1 μl saline ICV. The average adult hamster brain weights ca. 1.2 g of which 22% is extracellular fluid.

In a further series the test system is gram-negative meningitis. To be noted: 241 of 260; 4 g every 8 hrs for 2-3 weeks; cited from earlier work.
Series [4] deals with male hamsters. The series can be described thus: Sexual activity toward a receptive female. The class given is in vivo, golden hamsters. To be noted: 50 μg/kg, 90 min. How it is done:
Six animals were tested over a five min observation period for sexual activity following treatment with saline vehicle or 50 μg/kg Mox (FIG. 6). The study was counter balanced with each animal receiving each treatment. Ninety min after injection, animals were scored for latency to mount and number of intromissions, i.e., bouts of copulation, toward a receptive female placed into their home cage. Female golden hamsters were ovariectomized under general anesthesia. Following recovery animals were treated with a single SC injection of […] estradiol benzoate for three consecutive days to induce sexual receptivity. On the day of testing the estrogen primed females were introduced into the home cage of the experimental males. […] Lordosis, is a stereotyped posture characterized by intense, sustained vertebral dorsiflexion.

[5] abbreviates: 140 g hamster, IP injection of 14 μg.

As to `O=C(O)[C@H]1/C(=C/CO)O[C@@H]2CC(=O)N21` [CLAV, Clavulanic acid], in the series on rats (CLAV), the “distance traveled to find the platform” value is recorded as “not significantly different”, the “latency to find the platform” value was “no main effect for treatments”, the “percentage of time spent in each quadrant” value was “no significant difference between treatments” and the swim rate entry is listed as “no significant main effect”. In series [1], the “blood-brain barrier transport / CNS penetrability” value was “readily passes the blood-brain barrier”. Besides, the “blood-brain barrier transport / CNS penetrability” value in series [1] (listed as Clavulanate) is on record as “good blood brain barrier transport”. In the series with male hamsters [2], the “effect on the release of cortisol in response to mild stress” value is on record as “no ostensible effect”. Further, the “blood level of cortisol vs untreated, non-stressed control” value in the series on male hamsters [2] (sixty min, 5 min novel cage) was “more than twice”. Further, the “latency to find the sunflower seeds vs vehicle” value with golden hamsters (1 ng/kg IP, 90 min) was “not significantly different”. Further, the “dose with maximal efficacy in the seed finding test” value in the series with golden hamsters (IP) is recorded as 10 ng/kg body weight. For the same molecule, the “latency to find the sunflower seeds” value with golden hamsters (doses of 10 ng and above (up to 1,000 ng/kg) IP, 90 min) is listed as “less than 8.0 sec”. Also, the “estimated concentration in extracellular water” value in series [3] (CLAV 1.25 ng in 27.5 ml of water (10 ng/kg, 125 g hamster)) was 0.045 ng/mL. In addition, the “estimated concentration in the brain” value in series [3] (CLAV 10 ng/kg, CSF/plasma ratio 0.25) is “around 50 μM”. The “estimated concentration in extracellular water (molar)” value in series [3] (CLAV 10 ng/kg, formula weight ca. 240) is “about 200 μM”.
With `CO[C@@]1(NC(=O)C(C(=O)O)c2ccc(O)cc2)C(=O)N2C(C(=O)O)=C(CSc3nnnn3C)CO[C@@H]21` (stereo partly drawn) [Mox, 7-β-[2-carboxy-2-(4-hydroxyphenyl)acetamido]-7α-methoxy-3-[[(1-methyl-1H-tetrazol-5-yl)thio]methyl]-1-oxa-1-dethia-3-cephem-4-carboxylic acid], in the series on rats (Mox), the path length result is recorded as “much shorter path length”, the “percentage of time spent in each quadrant” value is recorded as “no significant difference between treatments” and the swim speed result is “no significant difference”. In addition, the “latency to find the platform” value with rats (Mox, trials 1, 3 and 4) was “significantly shorter latencies”. Further, the “blood-brain barrier transport / CNS penetrability” value in series [1] was “greatest penetrability into the CNS”. In addition, the “blood-brain barrier transport / CNS penetrability” value in series [1] (listed as Moxalactam) is recorded as “can penetrate the blood brain barrier”. The “change in seed finding time” value with golden hamsters (dose not given) is “reduction in seed finding time from minutes to seconds”. Also, the “patients with satisfactory response to antibiotic therapy” value with gram-negative meningitis is on record as 93%. Further, the intromission rate result with male hamsters [4] was “trend toward a decreased intromission rate”. Besides, the time to mount result in the series with male hamsters [4] (five min observation) is on record as “significantly increased”. Moreover, in series [3] (setting [5]), the “estimated CSF concentration” value was 15 ng/mL and the estimated serum concentration is 0.1 ng/mL. For the same molecule, the “estimated (effective minimum) concentration of moxalactam in the brain” value in series [3] (following 50 μg/kg, listed as moxalactam) was “about 30 nM”.
